Converted amounts (≈) assume the structure as drawn.
Tests used:
Test in all cases: In vitro antibacterial activity, microbroth dilution method (CLSI method)
Assay type in all cases: cell-based
H. influenzae Rd = settings: bacteria symbol B = H. influenzae Rd
Method: (§1) In vitro antibacterial activities of the compounds of the present invention against various test bacteria were measured according to the microbroth dilution method (CLSI method). The exemplary compounds shown in Table 9 and the comparative agent 1, clarithromycin, were used as test substances. The results are shown as MIC values (minimum inhibitory concentration, μg/ml) in Table 9. [table]

H. influenzae ATCC 43095 = settings: bacteria symbol A = H. influenzae ATCC 43095
Method: as §1

[1] = system: S. pneumoniae ATCC 700904; settings: bacteria symbol D = S. pneumoniae ATCC 700904
Method: as §1

S. pneumoniae ATCC 49619 = settings: bacteria symbol C = S. pneumoniae ATCC 49619
Method: as §1

Row | Compound | MIC values (minimum inhibitory concentration) (H. influenzae Rd) [µg/mL] | MIC values (minimum inhibitory concentration) (H. influenzae ATCC 43095) [µg/mL] | MIC values (minimum inhibitory concentration) [1] [µg/mL] | MIC values (minimum inhibitory concentration) (S. pneumoniae ATCC 49619) [µg/mL] | MIC (H. influenzae Rd; Haemophilus influenzae, read-out: MIC values (minimum inhibitory concentration)) [µg/mL] | MIC (H. influenzae ATCC 43095; Haemophilus influenzae, ATCC43095, read-out: MIC values (minimum inhibitory concentration)) [µg/mL] | MIC ([1]; Streptococcus pneumoniae, ATCC700904, read-out: MIC values (minimum inhibitory concentration)) [µg/mL] | MIC (S. pneumoniae ATCC 49619; Streptococcus pneumoniae, ATCC49619, read-out: MIC values (minimum inhibitory concentration)) [µg/mL]
1 | CCN(CCNC[C@@]1(O)[C@H](C)O[C@@H](O[C@H]2[C@H](C)[C@@H](O[C@@H]3O[C@H](C)C[C@H](N(C)C)[C@H]3O)[C@@](C)(OC)C[C@@H](C)[C@H](O)[C@H](C)N3CC(C3)OC(=O)[C@@H]2C)C[C@@]1(C)OC)[C@@H](C)c1ccccc1OC [Example 3] | 4 (≈ 4.33 µM) | 4 (≈ 4.33 µM) | 0.12 (≈ 0.13 µM) | 0.03 (≈ 0.0325 µM) |  |  |  | 
2 | COc1ncccc1C(C)(C)N(C)CCN(C)C[C@@]1(O)[C@H](C)O[C@@H](O[C@H]2[C@H](C)[C@@H](O[C@@H]3O[C@H](C)C[C@H](N(C)C)[C@H]3O)[C@@](C)(O)C[C@@H](C)[C@H](O)[C@H](C)N3CC(C3)OC(=O)[C@@H]2C)C[C@@]1(C)OC [Example 221] | 8 (≈ 8.66 µM) | 8 (≈ 8.66 µM) | 1 (≈ 1.08 µM) | 0.06 (≈ 0.0649 µM) |  |  |  | 
3 | CCN(CCNC[C@@]1(O)[C@H](C)O[C@@H](O[C@H]2[C@H](C)[C@@H](O[C@@H]3O[C@H](C)C[C@H](N(C)C)[C@H]3O)[C@@](C)(OC)C[C@@H](C)C(=O)[C@H](C)N3CC(C3)OC(=O)[C@@H]2C)C[C@@]1(C)OC)[C@@H](C)c1ccccc1OC [Example 5] | 8 (≈ 8.68 µM) | 4 (≈ 4.34 µM) | 0.5 (≈ 0.543 µM) | 0.03 (≈ 0.0326 µM) |  |  |  | 
4 | CO[C@]1(C)C[C@H](O[C@H]2[C@H](C)[C@@H](O[C@@H]3O[C@H](C)C[C@H](N(C)C)[C@H]3O)[C@@](C)(OC)C[C@@H](C)[C@H](O)[C@H](C)N3CC(C3)OC(=O)[C@@H]2C)O[C@@H](C)[C@@H]1O (mixture of isomers) [Example 1] | 1 | 0.5 | >128 | 0.12 |  |  |  | 
5 | CCN(CC(CO)NCC1(O)C(C)OC(OC2C(C)C(=O)OC3CN(C3)C(C)C(O)C(C)CC(C)(OC)C(OC3OC(C)CC(N(C)C)C3O)C2C)CC1(C)OC)C(C)c1ccccc1OC (stereo not shown) [Example 107] | 4 (≈ 4.2 µM) | 4 (≈ 4.2 µM) | 0.06 (≈ 0.0629 µM) | 0.03 (≈ 0.0315 µM) |  |  |  | 
6 | COc1cccc2c1CN(CCN(C)CC1(O)C(C)OC(OC3C(C)C(=O)OC4CN(C4)C(C)C(O)C(C)CC(C)(OC)C(OC4OC(C)CC(N(C)C)C4O)C3C)CC1(C)OC)CC2 (stereo not shown) [Example 132] | 8 (≈ 8.68 µM) | 4 (≈ 4.34 µM) | 1 (≈ 1.09 µM) | 0.06 (≈ 0.0651 µM) |  |  |  | 
7 | COc1ccccc1C(C)(C)N(C)Cc1cncn1CC1(O)C(C)OC(OC2C(C)C(=O)OC3CN(C3)C(C)C(O)C(C)CC(C)(OC)C(OC3OC(C)CC(N(C)C)C3O)C2C)CC1(C)OC (stereo not shown) [Example 204] | 16 (≈ 16.7 µM) | 16 (≈ 16.7 µM) | 1 (≈ 1.04 µM) | 0.03 (≈ 0.0312 µM) |  |  |  | 
8 | CCN(CCNC(=O)O[C@H]1[C@H](C)O[C@@H](O[C@H]2[C@H](C)[C@@H](O[C@@H]3O[C@H](C)C[C@H](N(C)C)[C@H]3O)[C@@](C)(OC)C[C@@H](C)[C@H](O)[C@H](C)N3CC(C3)OC(=O)[C@@H]2C)C[C@@]1(C)OC)[C@@H](C)c1ccccc1OC [Example 2] | 8 (≈ 8.54 µM) | 4 (≈ 4.27 µM) | 0.25 (≈ 0.267 µM) | 0.06 (≈ 0.064 µM) |  |  |  | 
9 | CCN(CCNC(=O)O[C@H]1[C@H](C)O[C@@H](O[C@H]2[C@H](C)[C@@H](O[C@@H]3O[C@H](C)C[C@H](N(C)C)[C@H]3O)[C@@](C)(O)C[C@@H](C)[C@H](O)[C@H](C)N3CC(C3)OC(=O)[C@@H]2C)C[C@@]1(C)OC)[C@@H](C)c1ccccc1OC [Example 12] | 8 (≈ 8.67 µM) | 8 (≈ 8.67 µM) | 0.25 (≈ 0.271 µM) | 0.03 (≈ 0.0325 µM) |  |  |  | 
10 | CCN(CC(C)NCC1(O)C(C)OC(OC2C(C)C(=O)OC3CN(C3)C(C)C(O)C(C)CC(C)(OC)C(OC3OC(C)CC(N(C)C)C3O)C2C)CC1(C)OC)C(C)(C)c1ccccc1OC (stereo not shown) [Example 84] | 4 (≈ 4.2 µM) | 4 (≈ 4.2 µM) | 0.06 (≈ 0.0631 µM) | 0.016 (≈ 0.0168 µM) |  |  |  | 
11 | COC1(C)CC(C)C(O)C(C)N2CC(C2)OC(=O)C(C)C(OC2CC(C)(OC)C(O)(CN(C)CCN(C)C(C)c3ccccc3-c3ccccn3)C(C)O2)C(C)C1OC1OC(C)CC(N(C)C)C1O (stereo not shown) [Example 195] | 8 (≈ 8.24 µM) | 4 (≈ 4.12 µM) | 0.06 (≈ 0.0618 µM) | 0.03 (≈ 0.0309 µM) |  |  |  | 
12 | CC[C@H]1OC(=O)[C@H](C)[C@@H](O[C@H]2C[C@@](C)(OC)[C@@H](O)[C@H](C)O2)[C@H](C)[C@@H](O[C@@H]2O[C@H](C)C[C@H](N(C)C)[C@H]2O)[C@](C)(OC)C[C@@H](C)C(=O)[C@H](C)[C@@H](O)[C@]1(C)O [Comparative agent 1, clarithromycin, reference compound] |  |  |  |  | 8 (≈ 10.7 µM) | 4 (≈ 5.35 µM) | > 128 | 0.03 (≈ 0.0401 µM)
13 | COc1ccccc1C(C)(C)N(C)CCN(C)CC1(O)C(C)OC(OC2C(C)C(=O)OC3CN(C3)C(C)C(O)C(C)CC(C)(OC)C(OC3OC(C)CC(N(C)C)C3O)C2C)CC1(C)OC (stereo not shown) [Example 71] | 2 (≈ 2.13 µM) | 2 (≈ 2.13 µM) | 0.12 (≈ 0.128 µM) | 0.03 (≈ 0.032 µM) |  |  |  | 
14 | COC1(C)CC(C)C(O)C(C)N2CC(C2)OC(=O)C(C)C(OC2CC(C)(OC)C(O)(CNCCNC(C)(C)c3cccc4c3ccn4C)C(C)O2)C(C)C1OC1OC(C)CC(N(C)C)C1O (stereo not shown) [Example 70] | 4 (≈ 4.29 µM) | 4 (≈ 4.29 µM) | 0.25 (≈ 0.268 µM) | 0.12 (≈ 0.129 µM) |  |  |  | 
15 | COc1cccc2c1CCCC2N(C)CCN(C)CC1(O)C(C)OC(OC2C(C)C(=O)OC3CN(C3)C(C)C(O)C(C)CC(C)(OC)C(OC3OC(C)CC(N(C)C)C3O)C2C)CC1(C)OC (stereo not shown) [Example 133] | 16 (≈ 16.9 µM) | 8 (≈ 8.43 µM) | 0.5 (≈ 0.527 µM) | 0.12 (≈ 0.126 µM) |  |  |  | 
16 | COc1ccccc1C(C)(C)N(C)CC1CN(CC2(O)C(C)OC(OC3C(C)C(=O)OC4CN(C4)C(C)C(O)C(C)CC(C)(OC)C(OC4OC(C)CC(N(C)C)C4O)C3C)CC2(C)OC)C1 (stereo not shown) [Example 162] | 2 (≈ 2.11 µM) | 2 (≈ 2.11 µM) | 0.12 (≈ 0.126 µM) | 0.03 (≈ 0.0316 µM) |  |  |  | 

From patent publication US8299035B2, “10a-azalide compound having 4-membered ring structure” (Taisho Pharmaceutucal Co., Ltd., priority 2008, dated 2012)
